Measurements published in patent US12577273B2, “Small molecule modulators of gut bacterial bile acid metabolism” (priority 2019, dated 2026).
Where “and” joins values, the source holds several entries; their conditions need not be identical. Equal values may be shown once. Entries after “also recorded” stand apart in the source; their conditions may differ.

Experiments:
B. longum BSH = molecular target: T1, B. longum BSH (Bifidobacterium longum, UniProt Q9KK62); assay: Inhibitor screen using rBSH, B. longum BSH (UPLC-MS % deconjugation); type: biochemical, Bifidobacterium longum SBT2928; set-up: His6 (C); made in house; host or cells: Escherichia coli (as for the B. theta enzyme); conditions: 100 μM inhibitor; 2 h, 5 h and 21 h timepoints
T1 sequence (Q9KK62 1-317): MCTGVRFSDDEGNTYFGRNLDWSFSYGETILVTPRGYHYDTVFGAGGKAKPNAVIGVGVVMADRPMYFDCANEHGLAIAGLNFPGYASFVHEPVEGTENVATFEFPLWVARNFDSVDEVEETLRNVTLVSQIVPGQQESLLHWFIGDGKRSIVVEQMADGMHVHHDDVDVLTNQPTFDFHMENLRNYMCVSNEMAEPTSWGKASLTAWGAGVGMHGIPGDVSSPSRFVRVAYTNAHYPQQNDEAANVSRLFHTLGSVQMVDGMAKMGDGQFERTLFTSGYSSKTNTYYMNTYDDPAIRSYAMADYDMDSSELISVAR
Protocol: B. longum rBSH. Recombinant BSH from B. longum SBT2928 was expressed and purified as above, except 0.25 mM IPTG was used for protein expression and 1 mM TCEP for protein purification.
Inhibitor Screen Using rBSHs.

B. adolescentis = assay: Inhibitor screen in bacteria, B. adolescentis culture; type: cell-based, Bifidobacterium adolescentis L2-32; conditions: FIG. 2c, 100 μM inhibitor, 100 μM bile acid pool, 21 h, replicates 1-3
[1] = tested on: three Gram negative and three Gram positive strains of human gut bacteria; assay: Growth (OD600) and cell viability (CFU/mL) of the six gut bacterial strains; conditions: 100 μM inhibitor
B. theta = assay: Inhibitor screen in bacteria, B. theta culture; type: cell-based, Bacteroides thetaiotaomicron VPI-5482; conditions: FIG. 2c, 100 μM inhibitor, 21 h, replicates 1-3
Protocol: (§1) Bacterial Culturing. All bacterial strains were cultured at 37° C. in Cullen-Haiser Gut (CHG) media (which consists of brain heart infusion media (Bacto™ BHI, BD) supplemented with 1% BBL vitamin K1-hemin solution (BD), 1% trace minerals solution (ATCC), 1% trace vitamins solution (ATCC), 5% fetal bovine serum (Hyclone), 1 g/L cellubiose, 1 g/L maltose, and 1 g/L fructose) or BHI^+ (Bacto™ BHI, BD, supplemented with 5 mg/L hemin, and 2.5 uL/L Vitamin K1). All strains were grown under anaerobic conditions in a anaerobic chamber (Coy Lab Products Airlock) with a gas mix of 5% hydrogen and 20% carbon dioxide nitrogen. Escherichia coli was grown aerobically at 37° C. in LB medium supplemented with ampicillin to select for the pET21b plasmid.
(§2) Inhibitor Screen in Bacteria. Bacterial cultures were diluted to OD600 of 0.1 in 4 mL BHI^+, containing 100 μM taurine conjugated bile acid pool 100 μM inhibitors. […] After 21 h, serial dilutions were plated on BHI^+ agar to determine cell viability (CFU/mL). […] The cultures were spun down in a centrifuge at 2,500 g for 5 mins to obtain better separation. The organic layer was then removed and the aqueous layer was extracted again using 2 mL of ethyl acetate.

B. theta BSH KO strain = assay: Incubation with BSH-deleted B. theta strain; conditions: 100 μM inhibitor
B. theta BSH = B. theta BSH (Bacteroides thetaiotaomicron, UniProt Q8A600); assay: Inhibitor screen using rBSH, B. theta BSH (UPLC-MS % deconjugation); conditions: 100 μM inhibitor, 30 min preincubation, monitored over 21 hours
B. fragilis = assay: Inhibitor screen in bacteria, B. fragilis culture; type: cell-based, Bacteroides fragilis ATCC 25285; conditions: FIG. 2c, 100 μM inhibitor, 100 μM bile acid pool, 21 h, replicates 1-3
Protocol: as §1, §2

[2] = tested on: three Gram negative and three Gram positive strains of human gut bacteria; assay: BSH inhibition in growing cultures of six gut bacterial strains (overall statements); type: cell-based; conditions: 100 μM inhibitor, 100 μM conjugated bile acid mixture
C. perfingens = type: cell-based, Clostridium perfringens ATCC 13124; conditions: FIG. 2c, C. perfingens culture; 100 μM inhibitor, 100 μM bile acid pool, 21 h; replicates 1-3
L. plantarum = assay: Inhibitor screen in bacteria, L. plantarum culture; type: cell-based, Lactobacillus plantarum WCFS1
[3] = tested on: BSH activity in conventional mouse feces; assay: Screen of inhibitors in conventional mouse feces; type: biochemical
Protocol: Screen of Inhibitors in Conventional Mouse Feces. […] The tubes were then frozen in dry ice for 5 mins and upon thawing were diluted with an equal volume of methanol. […] The supernatant was removed into a clean eppendorf tube and centrifuged again. […] The concentration of product detected from these assays was reported directly.

B. vulgatus = assay: Inhibitor screen in bacteria, B. vulgatus culture; type: cell-based, Bacteroides vulgatus ATCC 8482; conditions: FIG. 2c, 100 μM inhibitor, 100 μM bile acid pool, 21 h, replicates 1-3
Protocol: as §1, §2

[4] = substrate: C[C@H](CCC(=O)NCCS(=O)(=O)O)[C@H]1CC[C@H]2[C@@H]3[C@@H](O)C[C@@H]4C[C@H](O)CC[C@]4(C)[C@H]3CC[C@]12C; assay: purified protein, by the assay type
[5] = substrate: C[C@H](CCC(=O)NCCS(=O)(=O)O)[C@H]1CC[C@H]2[C@@H]3[C@H](O)C[C@@H]4C[C@H](O)CC[C@]4(C)[C@H]3C[C@H](O)[C@]12C; assay: purified protein, by the assay type; conditions: other: Table 3; substrate of B. longum BSH; mean ± SEM, n = 3; pH 7.5; 37.0 °C
[6] = substrate: C[C@H](CCC(=O)NCCS(=O)(=O)O)[C@H]1CC[C@H]2[C@@H]3CC[C@@H]4C[C@H](O)CC[C@]4(C)[C@H]3C[C@H](O)[C@]12C; assay: purified protein, by the assay type
[7] = FIG. 2c, L. plantarum culture, 100 μM inhibitor, 100 μM bile acid pool, 21 h, replicates 1-3
[8] = other: Table 1, substrate of B. longum BSH, PBS pH 7.5, 37° C.
[9] = other: Table 3, substrate of B. longum BSH, mean ± SEM, n = 3, pH 7.5, 37.0 °C

For `O=C(/C=C/c1ccc(O)c(O)c1)OCCc1ccccc1` [CAPE, caffeic acid phenethyl ester, reference compound], the “inhibition of B. longum BSH (in words)” value (B. longum BSH) was “ineffective”, the “% deconjugation of TCA” value (B. adolescentis) was 100.00% and the “% deconjugation of TDCA” value (B. adolescentis) was 99.85% and 100.00% and 99.71%. For the same molecule, the “% deconjugation of TUDCA” value (B. adolescentis) was 99.43% (2×) and 100.00%, the “% deconjugation of TβMCA” value (B. adolescentis) was 100.00% and the “effect on bacterial cell viability (CFU/mL, plated at 21 h)” value [1] was “decreased the cell viability of the Gram negative strains tested; also recorded: inhibited the cell viability of all three Gram negative bacterial strains tested”. The “effect on bacterial growth (OD600 at 24 hours)” value [1] was “inhibited the growth of the Gram positive strains tested; also recorded: inhibited the growth of all three Gram negative bacterial strains tested; also recorded: significantly inhibits the growth of the strains of Gram negative gut bacteria tested”, the “% deconjugation of TDCA” value (B. theta; 100 μM bile acid pool) was 2.06% and 0.90% and 0.81% and the “% deconjugation of TUDCA” value (B. theta; 100 μM bile acid pool) was 2.31% and 5.36% and 2.32%. The “% deconjugation of TβMCA” value (B. theta; 100 μM bile acid pool) was 0.64% and 0.28% and 0.16%, the “% deconjugation of TCA” value (B. theta; 100 μM taurine conjugated bile acid pool) was 0.42% and 0.72% and 0.52% and the “bactericidal effect on BSH-deleted B. theta (CFUs after 24 h)” value (B. theta BSH KO strain) was “significantly affect the growth”. For the same molecule, the “inhibition of B. theta BSH (in words)” value (B. theta BSH) was “only moderate inhibition”, the “% deconjugation of TCA” value (B. fragilis) was 88.33% and 85.35% and 84.93% and the “% deconjugation of TDCA” value (B. fragilis) was 98.95% and 98.93% and 99.13%. For the same molecule, the “% deconjugation of TUDCA” value (B. fragilis) was 98.66% and 98.65% and 99.13%, the “% deconjugation of TβMCA” value (B. fragilis) was 98.64% and 98.42% and 99.12% and the “deconjugation / BSH inhibition in cultures of the six bacterial strains (in words)” value [2] was “no inhibition of deconjugation was observed over the course of 21 hours in five out of the six bacterial strains; also recorded: neither riboflavin nor CAPE displayed significant inhibitory activity against any of the Gram negative strains; also recorded: No BSH inhibition in five out of the six bacterial strains”. For the same molecule, the “% deconjugation of TCA” value (C. perfingens) was 100.00%, the “% deconjugation of TDCA” value (C. perfingens) was 99.71% and 99.30% and 99.38% and the “% deconjugation of TUDCA” value (C. perfingens) was 98.92% and 98.62% and 98.71%. The “% deconjugation of TβMCA” value (C. perfingens) was 100.00%, the “inhibition of deconjugation in L. plantarum (in words)” value (L. plantarum; 100 μM CAPE) was “inhibit deconjugation in L. plantarum” and the “% deconjugation of TCA” value (L. plantarum; [7]) was 10.67% and 33.19% and 53.29%. The “% deconjugation of TDCA” value (L. plantarum; [7]) was 47.57% and 82.98% and 93.57%, the “% deconjugation of TUDCA” value (L. plantarum; [7]) was 6.80% and 1.73% and 3.54% and the “% deconjugation of TβMCA” value (L. plantarum; [7]) was 0.06% and 0.59% and 0.95%. The “BSH activity in resuspended conventional mouse feces (in words)” value ([3]; 20 μM inhibitor, 30 min, then GCDCA-d4 100 μM, 18 hours) was “minimal inhibitory activity; also recorded: no inhibition of BSH activity in feces”, the “deconjugation in resuspended mouse feces (in words)” value ([3]; either 20 μM or 100 μM) was “did not noticeably reduce deconjugation” and the “% deconjugation of TCA” value (B. vulgatus) was 1.46% and 1.06% and 0.00%. The “% deconjugation of TDCA” value (B. vulgatus) was 5.47% and 3.03% and 1.28%, the “% deconjugation of TUDCA” value (B. vulgatus) was 82.37% and 94.25% and 87.91% and the “% deconjugation of TβMCA” value (B. vulgatus) was 88.92% and 78.15% and 71.86%.

B1: B. longum BSH (Bifidobacterium longum) (protein)
chain: MCTGVRFSDDEGNTYFGRNLDWSFSYGETILVTPRGYHYDTVFGAGGKAKPNAVIGVGVVMADRPMYFDCANEHGLAIAGLNFPGYASFVHEPVEGTENVATFEFPLWVARNFDSVDEVEETLRNVTLVSQIVPGQQESLLHWFIGDGKRSIVVEQMADGMHVHHDDVDVLTNQPTFDFHMENLRNYMCVSNEMAEPTSWGKASLTAWGAGVGMHGIPGDVSSPSRFVRVAYTNAHYPQQNDEAANVSRLFHTLGSVQMVDGMAKMGDGQFERTLFTSGYSSKTNTYYMNTYDDPAIRSYAMADYDMDSSELISVAR
Work on B1 yielded a Km [4, 8] of 4.14 mM, a Km [4, 9] of 4.1 ± 2.5 mM and a Km [5] of 8.3 ± 2.5 mM. It also gave a kcat [5] of 0.115 s⁻¹, a kcat/Km [5] of 13.3 M⁻¹ s⁻¹ and a Km [6, 8] of 2.28 mM. It also gave a Km [6, 9] of 2.3 ± 0.3 mM.
